Results as given in US20080089957A1, “Monocotyledon plant indications extract compositions, method of preparation and pharmaceutical compositions containing them” (priority 2006, published 2008).
Structures can show the parent of a compound that is named as a salt.

Target: xanthine oxidase (UniProt P80457)
Assay: Xanthine oxidase inhibitory activity assay, spectrophotometric at 295 nm
Type: biochemical
Conditions: Table 3, triplicate; read-out: IC50 ± SEM
Procedure: A reaction mixture containing 200 mM sodium pyrophosphate buffer (pH 7.5), 100 mM xanthine and 0.05 unit xanthine oxidase was prepared. […] All determinations were performed in triplicate and samples were tested further to ascertain the corresponding IC50 values.

**Q.** Which IC50 does the source give for Nc1nc(N)c2[nH]cnc2n1 [2,6-Diaminopurine] here?
**A.** The IC50 was greater than 200 µM.

**Q.** For Nc1nc(Cl)c2nc[nH]c2n1 [2-Amino-6-chloropurine], which IC50 is on record?
**A.** Its IC50 is greater than 200 µM.

**Q.** With Nc1ncc2[nH]cnc2n1 [2-Aminopurine] as the compound, how does the IC50 read?
**A.** Its IC50 is greater than 200 µM.

**Q.** How did the IC50 turn out when Cc1cc2nc[nH]c2cc1C [5,6-Dimethylbenzimidazole] was run?
**A.** The IC50 was greater than 200 µM.

**Q.** With Cc1ccc2[nH]cnc2c1 [5-Methylbenzimidazole] as the compound, how does the IC50 read?
**A.** Its IC50 is greater than 200 µM.

**Q.** How did the IC50 turn out when COc1nc(N)nc2nc[nH]c12 [6-O-Methylguanine] was run?
**A.** Its IC50 is greater than 200 µM.

Same assay, conditions: unit inferred; read-out: IC50 on xanthine oxidase

**Q.** Nc1ncnc2[nH]ncc12 [4-Aminopyrazolo[3,4-d]pyrimidine] was tested. Which IC50 did it give?
**A.** Its IC50 is 30.26 ± 0.23 µM.

**Q.** For O=[N+]([O-])c1ccc2[nH]cnc2c1 [5-Nitrobenzimidazole nitrate salt], which IC50 is on record?
**A.** The IC50 was 86.84 ± 0.51 µM.

**Q.** How did the IC50 turn out when Nc1nc2nc[nH]c2c(=S)[nH]1 [6-Thioguanine] was run?
**A.** Its IC50 is 92.42 ± 0.62 µM.

Tested on: phosphodiesterases
Assay: Phosphodiesterase inhibitory activity assay, bis(p-nitrophenyl phosphate), 405 nm
Type: biochemical
Conditions: not given
Procedure: The inhibitory effect on phosphodiesterases was measured spectrophotometrically at 405 nm. A reaction mixture containing 300 μl of 100 mM Tris buffer (pH 8.9), 600 μl of 1 mM Bis(p-nitrophenyl phosphate), 100 μl of sample and 100 μl of enzyme was used for analysis. The absorption increments at 405 nm indicated formation of […] at room temperature, and the initial velocity was calculated. The inhibitory activity of phosphodiesterases was assessed as % inhibition=(1−β/α)×100, where α is the change in absorbance per minute without the sample (A blank with enzyme−A blank without enzyme), and β is the change in absorbance per minute with the sample (A test with enzyme−A test without enzyme).

**Q.** For O=C(O)/C=C(\CC(=O)O)C(=O)O [trans-aconitic acid], which “phosphodiesterase inhibitory activity” value is on record?
**A.** The value was “phosphodiesterase inhibitor”.
